Data reported in patent US7045528B2, “Benzofused heterozryl amide derivatives of thienopyridines useful as therapeutic agents, pharmaceutical compositions including the same, and methods for their use” (Agouron Pharmaceuticals, Inc., priority 2002, dated 2006).

Key:
PDGFRβ = target: T1, PDGFRβ (Homo sapiens, UniProt P09619); experiment: PAE-PDGFRβ phosphorylation in PAE-PDGFRB cells assay; format: cell-based; details: PAE cells overexpressing human PDGFRβ, PDGF-BB stimulated; read-out: PAE PDGFR autophos IC50 (nM) AVG
T1 construct: expressed in transfected cells; host or cells: porcine aorta endothelial (PAE)-PDGFRβ cells
Method in brief: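 PAE cells overexpressing human PDGFRβ, serum-starved 16 h (0.1% FBS), were given compound for 1 h at 37 °C (0.5% DMSO) and then stimulated with 1 μg/mL PDGF-BB plus 2 mM Na3VO4 for 8 min. Receptor autophosphorylation was read by capture ELISA (HRP-PY20, TMB, 450 nm); IC50 from 4-parameter fit.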

Mouse PK assay = format: in vivo; details: 50 mg/kg, B6 female mice, plasma; for AUC / Cmax: mouse, po
Method: The pharmacokinetics (e.g., absorption and elimination) of drugs in mice were analyzed using the following experiment. Test compounds were formulated as a suspension in a 30:70 (PEG 400:acidified H2O) vehicle. This solution was administered orally (p.o.) and intraperitoneally (i.p.) at 50 mg/kg to two distinct groups (n=4) of B6 female mice. Blood samples were collected via an orbital bleed at time points: 0 hour (pre-dose), 0.5 hr, 1.0 hr, 2.0 hr, and 4.0 hr post dose. Plasma was obtained from each sample by centrifugation at 2500 rpm for 5 min. Test compound was extracted from the plasma by an organic protein precipitation method. For each time bleed, 50 μL of plasma was combined with 1.0 mL of acetonitrile, vortexed for 2 min. and then spun at 4000 rpm for 15 min. to precipitate the protein and extract out the test compound. Next, the acetonitrile supernatant (the extract containing test compound) was poured into new test tubes and evaporated on a hot plate (25° C.) under a steam of N2 gas. To each tube containing the dried test compound extract, 125 μL of mobile phase (60:40, 0.025 M NH4H2PO4+2.5 mL/L TEA:acetonitrile) was added. The test compound was resuspended in the mobile phase by vortexing and more protein was removed by centrifugation at 4000 rpm for 5 min. Each sample was poured into an HPLC vial for test compound analysis on an Hewlett Packard 1100 series HPLC with UV detection. From each sample, 95 μL was injected onto a Phenomenex-Prodigy reverse phase C-18, 150×3.2 mm column and eluted with a 45–50% acetonitrile gradient run over 10 min. Test-compound plasma concentrations (μg/mL) were determined by a comparison to standard curve (peak area vs. conc. μg/mL) using known concentrations of test compound extracted from plasma samples in the manner described above. Along with the standards and unknowns, three groups (n=4) of quality controls (0.25 μg/mL, 1.5 μg/mL, and 7.5 μg/mL) were run to insure the consistency of the analysis. […] The quantitated test samples were plotted for visual display using Kalidagraph software and their pharmacokinetic parameters were determined using WIN NONLIN software.

T1 sequence (P09619 33-1106): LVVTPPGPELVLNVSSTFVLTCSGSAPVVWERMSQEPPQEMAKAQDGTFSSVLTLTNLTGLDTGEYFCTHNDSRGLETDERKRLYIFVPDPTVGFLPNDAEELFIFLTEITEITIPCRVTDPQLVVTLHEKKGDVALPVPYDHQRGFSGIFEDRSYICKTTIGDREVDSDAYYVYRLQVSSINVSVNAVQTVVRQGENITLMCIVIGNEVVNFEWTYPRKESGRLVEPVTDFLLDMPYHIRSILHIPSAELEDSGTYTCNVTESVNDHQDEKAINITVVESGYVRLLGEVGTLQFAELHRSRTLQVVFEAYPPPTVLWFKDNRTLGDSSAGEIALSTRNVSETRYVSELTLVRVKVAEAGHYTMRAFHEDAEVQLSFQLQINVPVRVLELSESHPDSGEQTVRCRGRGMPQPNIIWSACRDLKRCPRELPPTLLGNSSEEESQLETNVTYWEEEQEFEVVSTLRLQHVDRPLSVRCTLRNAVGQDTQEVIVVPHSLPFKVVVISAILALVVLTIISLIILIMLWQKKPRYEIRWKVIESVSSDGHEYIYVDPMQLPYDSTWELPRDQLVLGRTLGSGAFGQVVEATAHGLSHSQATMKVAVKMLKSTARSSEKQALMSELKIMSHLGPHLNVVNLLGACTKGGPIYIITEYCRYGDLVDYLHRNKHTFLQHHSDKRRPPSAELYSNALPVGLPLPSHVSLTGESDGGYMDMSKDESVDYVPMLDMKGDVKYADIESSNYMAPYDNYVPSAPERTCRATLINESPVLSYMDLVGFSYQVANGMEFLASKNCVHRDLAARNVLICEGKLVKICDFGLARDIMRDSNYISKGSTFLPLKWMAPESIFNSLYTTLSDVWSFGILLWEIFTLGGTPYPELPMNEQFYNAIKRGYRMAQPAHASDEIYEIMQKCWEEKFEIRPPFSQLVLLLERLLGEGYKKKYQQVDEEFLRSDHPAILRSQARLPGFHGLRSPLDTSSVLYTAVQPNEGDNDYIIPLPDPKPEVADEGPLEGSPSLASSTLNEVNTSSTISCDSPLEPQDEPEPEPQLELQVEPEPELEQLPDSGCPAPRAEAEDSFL

Row | SMILES | IC50 (PDGFRβ) [nM] | mouse Cmin, po (Mouse PK assay) [ng/mL] | AUC (Mouse PK assay) [ng·h/mL] | Cmax (Mouse PK assay) [ng/mL]
1 | CNC(=O)c1c(C)sc2cc(Oc3ccnc4cc(-c5nccn5C)sc34)ccc12 [Example 1, 2-methyl-6-(2-[1-methyl-1H-imidazol-2-yl]thieno[3,2-b]pyridin-7-yloxy)benzo[b]thiophene-3-carboxylic acid methylamide] | 164 | 2793 | 183000 | 125000
2 | CNC(=O)c1c(C)oc2cc(Oc3ccnc4cc(-c5nccn5C)sc34)ccc12 [Example 13] | 41 | 1700 | 63000 | 24800
3 | CNC(=O)c1c(C)sc2cc(Oc3ccnc4cc(C(=O)N5CCC[C@H]5CO)sc34)ccc12 [Example 3] | 756 | 66 | 2450 | 956
4 | CNC(=O)c1c(C)sc2cc(Oc3ccnc4cc(C(=O)N5CC[C@@H](O)C5)sc34)ccc12 [Example 6, 6-(2-[(R)-3-hydroxypyrrolidine-1-carbonyl]thieno[3,2-b]pyridin-7-yloxy)-2-methylbenzo[b]thiophene-3-carboxylic acid methylamide] | 255 | 20 | 586 | 355
5 | CNC(=O)c1c(C)n(C)c2cc(Oc3ccnc4cc(C(=O)N5CC[C@@H](O)C5)sc34)ccc12 [Example 19, 1,2-dimethyl-6-(2-[3-hydroxy-pyrrolidine-1-carbonyl]thieno[3,2-b]pyridin-7-yloxy)-1H-indole-3-carboxylic acid methylamide] | 172 | 4 | 120 | 51
6 | CNC(=O)c1c(C)sc2cc(Oc3ccnc4cc(C(=O)N5CCC[C@H]5COC)sc34)ccc12 [Example 2, 6-(2-[(S)-2-(methoxymethyl)pyrrolidine-1-carbonyl]thieno[3,2-b]pyridin-7-yloxy)-2-methylbenzo[b]thiophene-3-carboxylic acid methylamide] | 912 | – | – | –
7 | Cc1c(C(=O)NC2CC2)c2ccc(Oc3ccnc4cc(-c5nccn5C)sc34)cc2n1C [Example 20, 1,2-Dimethyl-6-[2-(1-methyl-1H-imidazol-2-yl)-thieno[3,2-b]pyridin-7-yloxy]-1H-indole-3-carboxylic acid cyclopropylamide] | 43 | – | – | –
8 | CNC(=O)c1c(C)sc2cc(Oc3ccnc4cc(C(=O)N5CC[C@@H](OC)C5)sc34)ccc12 [Example 4, 6-(2-[(R)-3-methoxypyrrolidine-1-carbonyl]thieno[3,2-b]pyridin-7-yloxy)-2-methylbenzo[b]thiophene-3-carboxylic acid methylamide] | 284 | 200 | 7670 | 2340

The next compounds have a lower IC50 (PDGFRβ) than those just listed; values first:

Row | IC50 (PDGFRβ) [nM] | mouse Cmin, po (Mouse PK assay) [ng/mL] | AUC (Mouse PK assay) [ng·h/mL] | Cmax (Mouse PK assay) [ng/mL] | SMILES
9 | 32 | 342 | 8720 | 4120 | CNC(=O)c1c(C)n(C)c2cc(Oc3ccnc4cc(C(=O)N5CC[C@@H](OC)C5)sc34)ccc12 [Example 18, 1,2-dimethyl-6-(2-[3-methoxy-pyrrolidine-1-carbonyl]thieno[3,2-b]pyridin-7-yloxy)-1H-indole-3-carboxylic acid methylamide]
10 | 20 | 2334 | 71600 | 28800 | CNC(=O)c1c(C)n(C)c2cc(Oc3ccnc4cc(-c5nccn5C)sc34)ccc12 [Example 17, 1,2-dimethyl-6-(2-[1-methyl-1H-imidazol-2-yl]thieno[3,2-b]pyridin-7-yloxy)-1H-indole-3-carboxylic acid methylamide]
11 | 18.7 | – | – | – | CCCCNC(=O)c1c(C)n(C)c2cc(Oc3ccnc4cc(-c5nccs5)sc34)ccc12 [Example 62, 1,2-Dimethyl-6-(2-thiazol-2-yl-thieno[3,2-b]pyridin-7-yloxy)-1H-indole-3-carboxylic acid butylamide]
12 | 17.8 | – | – | – | CCCNC(=O)c1c(C)n(C)c2cc(Oc3ccnc4cc(-c5nccn5C)sc34)ccc12 [Example 61, 1,2-Dimethyl-6-[2-(1-methyl-1H-imidazol-2-yl)thieno[3,2-b]pyridin-7-yloxy]-1H-indole-3-carboxylic acid propylamide]
13 | 14.4 | 270 | 12000 | 5420 | CNC(=O)c1c(C)oc2cc(Oc3ccnc4cc(C(=O)N5CC[C@@H](OC)C5)sc34)ccc12 [Example 12, 6-(2-[3-methoxypyrrolidine-1-carbonyl]thieno[3,2-b]pyridin-7-yloxy)-2-methylbenzofuran-3-carboxylic acid methylamide]
